{"source": "paper PMC11510561", "about": "“Synthesis, Urease Inhibition, Molecular Docking, and Optical Analysis of a Symmetrical Schiff Base and Its Selected Metal Complexes” (Molecules, 2024)", "key": {"urease [1]": {"molecular_target": "T1, urease (Canavalia ensiformis, UniProt P07374)", "T1 sequence (P07374 whole entry, looked up)": "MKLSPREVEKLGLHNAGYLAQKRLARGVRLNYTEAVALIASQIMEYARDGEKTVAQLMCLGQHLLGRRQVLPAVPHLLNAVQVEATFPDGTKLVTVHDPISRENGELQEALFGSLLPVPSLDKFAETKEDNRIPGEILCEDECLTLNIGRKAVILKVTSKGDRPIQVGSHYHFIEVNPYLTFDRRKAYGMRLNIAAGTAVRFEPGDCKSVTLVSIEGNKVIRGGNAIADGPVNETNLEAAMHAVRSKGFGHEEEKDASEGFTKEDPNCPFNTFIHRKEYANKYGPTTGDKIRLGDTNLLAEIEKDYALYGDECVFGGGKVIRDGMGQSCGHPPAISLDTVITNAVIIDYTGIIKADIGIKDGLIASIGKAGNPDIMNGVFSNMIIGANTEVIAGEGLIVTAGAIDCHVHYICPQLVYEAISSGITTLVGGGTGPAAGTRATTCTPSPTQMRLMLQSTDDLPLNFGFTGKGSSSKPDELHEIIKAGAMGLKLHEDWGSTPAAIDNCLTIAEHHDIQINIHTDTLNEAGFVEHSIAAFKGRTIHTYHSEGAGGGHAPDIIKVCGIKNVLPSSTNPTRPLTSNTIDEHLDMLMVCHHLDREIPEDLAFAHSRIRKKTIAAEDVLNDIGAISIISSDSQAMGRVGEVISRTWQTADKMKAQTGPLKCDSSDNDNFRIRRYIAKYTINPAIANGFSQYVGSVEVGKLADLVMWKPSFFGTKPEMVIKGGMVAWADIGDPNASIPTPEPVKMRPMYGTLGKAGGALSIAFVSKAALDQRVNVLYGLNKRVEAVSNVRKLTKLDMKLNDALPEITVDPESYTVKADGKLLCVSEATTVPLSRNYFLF", "conditions": "cited from earlier work"}, "urease [2]": {"molecular_target": "T1, urease", "assay": "biochemical", "protocol": "The indophenol method as outlined by Weatherburn was employed to assess urease activity by measuring the produced ammonia. Briefly, incubation of the reaction mixture was carried out at 37 degrees Celsius for half an hour on the microplate reader with 96-well plates. The operated mixture consisted of 20 microliters of the enzyme (from 5 units per ml of stock solution), 20 µL of the tested compound (5 mg/mL stock solution), and 50 microliters of the buffer solution. Thiourea was employed as a reference inhibitor, and percentage inhibition was calculated by […]."}, "[3]": {"conditions": "ref [36], read-out: IC50 (urease)"}}, "note": "Read-outs that look alike come from different tables or passages of the source.", "data": [{"smiles": "CC(=O)NO", "note": "[Acetohydroxamic acid]", "values": [{"measurement": "IC50", "setting": "urease [1]; ref [37], read-out: IC50 (urease)", "value": 7.9, "unit": "µM"}, {"measurement": "IC50", "setting": "urease [1]; unit inferred, ref [39], read-out: IC50 (urease), reference drug", "value": 32.1, "unit": "µM"}]}, {"smiles": "COc1ccc(-c2n[nH]c(=O)n2/N=C/c2cccc(/C=N/n3c(-c4ccc(OC)cc4)n[nH]c3=O)n2)cc1", "note": "[Compound 6, 4,4′-((1E,1′E)-(Pyridine-2,6-diylbis(methanylylidene))bis(azanylylidene))bis(3-(4-methoxyphenyl)-1H-1,2,4-triazol-5(4H)-one)]", "values": [{"measurement": "IC50", "setting": "urease [2]", "value": "21.8 ± 1.88", "unit": "µM"}, {"measurement": "melting point", "value": "181 to 183", "unit": "°C"}]}, {"smiles": "Nn1c(-c2ccncc2)n[nH]c1=S", "note": "[Compound C00005]", "values": [{"measurement": "IC50", "setting": "urease [1]; read-out: IC50 (urease), ref [39]", "value": "> 100", "unit": "µM"}]}, {"smiles": "Nn1c(SCC(=O)O)nnc1-c1ccccn1", "note": "[Compound H2L]", "values": [{"measurement": "IC50", "setting": "urease [1]; read-out: IC50 (urease), ref [38]", "value": "14.7 ± 1.4", "unit": "µM"}]}, {"smiles": "Nn1c(SCC(=O)O)nnc1-c1ccncc1", "note": "[HL]", "values": [{"measurement": "IC50", "setting": "urease [1]; read-out: IC50 (urease), ref [37]", "value": "15.1 ± 2.22", "unit": "µM"}]}, {"smiles": "NC(=O)NO", "note": "[Hydroxyurea]", "values": [{"measurement": "IC50", "setting": "urease [1]; [3]", "value": 100, "unit": "µM"}]}, {"smiles": "NC(N)=S", "note": "[Thiourea]", "values": [{"measurement": "IC50", "setting": "urease [2]; indophenol method, 37 degrees Celsius, half an hour, thiourea as reference, read-out: Urease Inhibition IC50", "value": 20.7, "unit": "µM"}, {"measurement": "IC50", "setting": "urease [1]; ref [35], read-out: IC50 (urease)", "value": 22, "unit": "µM"}, {"measurement": "IC50", "setting": "urease [1]; [3]", "value": 23, "unit": "µM"}]}]}
